# Assay results: patent US20060141029A1, “Methods and compositions for delivery of catecholic butanes for treatment of diseases” (priority 2003, published 2006)
# Key:
# Solubility = assay type: physicochemical
# [1] = tested on: HPV-16 transformed immortal mouse epithelial cells (C3); details: cited from earlier work; for tumor growth: intratumor injection, separately or together, C3 tumors in mice
# β-amyloid fibrils = details: in vitro; cited from earlier work
# [2] = tested on: mammary carcinoma MX-1 xenograft; details: intratumoral single dose or topical application, athymic mice; cited from earlier work
# [3] = in vivo; cited from earlier work
# fAβ(1-40) = target: T1, fAβ(1-40) (Homo sapiens, UniProt P05067); details: within a few hours at pH 7.5 at 37° C.; cited from earlier work
# T1 construct: broke down fAβ(1-40)
# T1 sequence (P05067 672-711 limits assumed): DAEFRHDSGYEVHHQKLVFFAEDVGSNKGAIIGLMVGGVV
# [4] = rodents; cited from earlier work
# fAβ(1-42) = target: T2, fAβ(1-42) (Homo sapiens, UniProt P05067); details: within a few hours at pH 7.5 at 37° C.; cited from earlier work
# T2 construct: fAβ(1-42) within a few hours at pH 7.5
# T2 sequence (P05067 672-713 limits assumed): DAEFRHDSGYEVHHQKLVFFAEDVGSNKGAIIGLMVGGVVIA
# [5] = DMSO; cited from earlier work
# [6] = Toxicokinetic (TK) analysis of M4N serum concentration in dogs; assay type: in vivo, Beagle Dogs; details: DMSO vehicle, doses up to 100 mg/kg
# Experimental: Blood samples from the DMSO group animals were collected via the cephalic vein on SD 1, SD 3, SD 6, and SD 8 at the following timepoints: predose, 0.25, 0.5, 1, 2, 4, 8, and 16 hours following the final injection dose of M4N-DMSO. Blood samples collected from the animals were processed for plasma and serum for TK analysis.
# The plasma and serum samples were sent to MedTox Laboratories, the Sponsor's designated laboratory for TK analysis. TK analysis of M4N plasma and serum concentration-time data was performed using a validated method (M200406) by MedTox Laboratories and analyzed by noncompartmental methods to obtain estimates of toxicokinetic parameters (where data allow), but not necessarily limited to, Cmax, Tmax and AUC.
# head and neck cancer = assay: ex-US clinical study, daily M4N with or without G4N followed by surgical resection; assay type: in vivo, humans
# [7] = tested on: refractory head and neck carcinomas
# Experimental: All patients were diagnosed with refractory head and neck carcinomas.
# Nine (9) subjects were dosed with an intratumoral dose of M4N given weekly for three weeks, at doses of 5 mg/cm^3 tumor volume (2 subjects), 10 mg/cm^3 (2 subjects) 15 mg/cm^3 (3 subjects) and 20 mg/cm^3 (2 subjects). Doses up to 495 mg weekly for three weeks were administered.
# [8] = dog, in vivo, iv
# Experimental: In this example the Maximal Tolerable Dose (MTD) of Dimethyl Sulfoxide (DMSO)] to male and female Beagle Dogs was determined.
# Thus the M4N-DMSO group animals were administered with M4N-DMSO with eight intravenous injections via the non-VAP jugular vein every 30 minutes over a 4-hour period. This frequency of delivery mimicked the delivery of the test article using the infusion pump.
# The dogs in the DMSO group were observed throughout the jugular vein injection period and for at least one hour following the last (eighth) injection.
structure (smiles),measurement,setting,value
"C[C@H](Cc1ccc(OC(=O)CN(C)C)c(OC(=O)CN(C)C)c1)[C@@H](C)Cc1ccc(OC(=O)CN(C)C)c(OC(=O)CN(C)C)c1 [G4N, meso-1,4-bis[3,4-(dimethylaminoacetoxy)phenyl]-(2R,3S)-dimethylbutane]",water solubility,Solubility,water-soluble
same,tumor growth,[1],some evidence of suppression of tumor growth
"CC(Cc1ccc(O)c(O)c1)C(C)Cc1ccc(O)c(O)c1 (centres unmarked) [NDGA, nordihydroguaiaretic acid]",β-amyloid fibrils (fAβ) formation,β-amyloid fibrils,inhibited
same,tumor growth,[2],Some evidence of inhibition of tumor growth
same,hypertension,[3],reducing hypertension
same,breakdown of fAβ(1-40),fAβ(1-40),dose-dependently broke down
same,serum glucose,[4],reducing
same,serum non-esterified fatty acids,[4],reducing
same,serum triglyceride,[4],reducing
same,breakdown of fAβ(1-42),fAβ(1-42),dose-dependently broke down
"COc1ccc(C[C@@H](C)[C@@H](C)Cc2ccc(OC)c(OC)c2)cc1OC [M4N, meso-1,4-bis(3,4-dimethoxyphenyl)-2,3-dimethylbutane]",solubility in dimethyl sulfoxide,[5],soluble
same,blood levels of M4N achieved,[6],"up to 14,000 ng/ml"
same,penetration of tumor tissues,[1]; composition of M4N in DMSO injected into the tumor,penetrate most but not all of the tumor tissues
same,tumor growth,[1],some evidence of suppression of tumor growth
same,dosage delivered without drug-related toxicity,"head and neck cancer; for up to five days, with or without G4N 20 mg per day",20 mg per day
same,patients remaining disease free,head and neck cancer; long-term follow ups of the ex-US study,64%
same,efficacy in terms of induction of necrosis,"head and neck cancer; patients that completed the treatment, daily dosing then resection",over 80%
same,damage to healthy tissue surrounding the tumor,[7]; in vivo,No damage
same,dose delivered without drug-related toxicity,[7]; in vivo,up to 495 mg
same,dosing related adverse events,[7]; in vivo,mild or moderate pain on injection
same,hematology parameters,[7]; in vivo,No changes attributable to drug
same,liver function tests (LFTs),[7]; in vivo,"Sporadic, and non-reproducible mild elevations"
same,number of Serious Adverse Events (SAE),[7]; in vivo,6
same,relation of SAEs to study medication,[7]; in vivo,unlikely or not related to study medication
same,tolerability of dosing,[7]; in vivo,generally well tolerated
same,patients with radiologically confirmed tumor volume reduction,[7]; patients completing three doses,three of the six
same,efficacy in terms of induction of necrosis,"[7]; patients that completed the treatment, weekly escalating doses",over 80%
same,subjects with drug related tumor necrosis after injection,[7]; subjects receiving three doses,5 of 6
same,dose safely administered,[8],up to 100 mg/kg
